Experimental data from PubChem BioAssay AID720632 (Broad Institute, 2013).
Calls of active or inactive are those of the source. How the calls were made is not given here.

Biological target: Caspase-6 (Homo sapiens) (UniProt P55212)
Assay: inhibition of CASP6 peptide cleavage – biochemical, VEID-R110 fluorescence, cherry-pick, dose response (AID 720632)
Settings: caspase-6, VEID-R110 fluorogenic substrate

Caspase-6 (Homo sapiens), sequence (P55212 24-179 limits assumed): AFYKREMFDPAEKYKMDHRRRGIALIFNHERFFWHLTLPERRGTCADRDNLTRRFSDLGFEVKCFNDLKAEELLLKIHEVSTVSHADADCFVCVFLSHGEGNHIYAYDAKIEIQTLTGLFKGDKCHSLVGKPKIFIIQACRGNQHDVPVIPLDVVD
Caspase-6 (Homo sapiens), sequence (P55212 194-293 limits assumed): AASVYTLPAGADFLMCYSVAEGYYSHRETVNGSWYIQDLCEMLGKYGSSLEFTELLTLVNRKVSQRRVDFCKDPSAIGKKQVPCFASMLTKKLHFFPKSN

| SMILES | activity change, negative = inhibition (at 26 µM (top of the series)) | other results |
| --- | --- | --- |
| COc1cc2[nH]c(Cl)c([N+](=O)[O-])c2cc1OC | inactive |  |
| CCNC(=S)N1CCCCC1CO (stereo unspecified) | inactive |  |
| O=C(Nc1cccc(F)c1)c1coc(=O)c(Br)c1 | inactive |  |
| O=C(COC(=O)c1cccc(OC(F)F)c1)Nc1cccc(S(=O)(=O)N2CCCC2)c1 | inactive |  |
| COC(=O)CN1C(=O)COc2ccc(S(=O)(=O)N3CCCCC3)cc21 | inactive |  |
| NC[C@H](O)c1ccc(O)c(O)c1 | inactive |  |
| CC(=O)Nc1ccc(NC(=O)COC(=O)c2ccc([N+](=O)[O-])o2)cc1 | inactive |  |
| COc1cc2ccccc2cc1C(=O)N(CCN(C)C)c1nc2c(F)cc(F)cc2s1 | inactive |  |
| CCCN1C[C@H](C)[C@H](OC)CN(C)C(=O)c2ccc(NC(=O)c3ccccc3)cc2OC[C@@H]1C | inactive |  |
| Cc1ccc(C(=O)NCC(=O)N(C)Cc2ccccc2C)s1 | inactive |  |
| C/C(=N/NS(=O)(=O)c1ccc(Cl)cc1)c1cccc(NC(=O)c2ccncc2)c1 | inactive |  |
| CC(C)(C)NC(=O)C1CCN(S(=O)(=O)c2cccc3nsnc23)CC1 | inactive |  |
| COc1cccc(NC(=O)CC(=O)c2ccc([N+](=O)[O-])cc2)c1 | inactive |  |
| O=C(C[C@@H]1C[C@H]2c3cc(NC(=O)Nc4ccccc4F)ccc3O[C@H]2[C@H](CO)O1)NC1CCCC1 | inactive |  |
| O=C1c2ccccc2[C@@H]2C[C@@H](O)[C@H](Nc3cccc4ccccc34)CCN12 | inactive |  |
| O=Cc1cscc1[B-](F)(F)F | inactive |  |
| COC(=O)C[C@H]1CC[C@@H]2[C@H](COc3ccc(NC(=O)c4cnccn4)cc3C(=O)N2C)O1 | inactive |  |
| Cc1ccc(N2C(=O)Cc3ccccc3C2=O)cc1 | inactive |  |
| CC(OC(=O)c1n[nH]c2ccccc12)C(=O)Nc1ccccc1[N+](=O)[O-] (stereo unspecified) | inactive |  |
| O=C(N/N=C/c1oc(O)c2ccccc12)c1ccccc1O | inactive |  |
| C=CCNc1nc(Nc2cc(Cl)ccc2OC)nc(OC)n1 | inactive |  |
| COc1ccc(O)c(C(c2c(C)[nH][nH]c2=O)c2c(C)[nH][nH]c2=O)c1 | inactive |  |

| SMILES | activity change, negative = inhibition (at 26 µM (top of the series)) | other results |
| --- | --- | --- |
| CCOC(=O)CC1C(=O)NCCN1S(=O)(=O)c1cccc(C(F)(F)F)c1 (stereo unspecified) | inactive |  |
| COc1ccccc1C(=O)Nc1ccc2c(c1)OC[C@H](C)N(CC1CC1)C[C@H](C)[C@H](OC)CN(C)C2=O | inactive |  |
| CCC1CCc2sc(C(=O)NNC(=O)c3ccncc3)cc2C1 (stereo unspecified) | inactive |  |
| CCOc1ccc(N(CC(=O)Nc2cc(Cl)ccc2C)S(C)(=O)=O)cc1 | inactive |  |
| Cc1ccc([N+](=O)[O-])cc1NC(=O)C(C)N1CCCCC1 (stereo unspecified) | inactive |  |
| CCC(=O)Nc1ccc2c(c1)OC[C@@H](C)N(C(=O)CC)C[C@@H](C)[C@H](OC)CN(C)C2=O |  | activity change, negative = inhibition (at 23.5 µM (top of the series)): inactive |
| CO[C@H]1CN(C)C(=O)c2ccc(NC(=O)C3CC3)cc2OC[C@@H](C)N(Cc2cccc(F)c2)C[C@H]1C | inactive |  |
| Cc1ccccc1NC(=O)C1CCCN(S(=O)(=O)c2cnc[nH]2)C1 (stereo unspecified) | inactive |  |
| Oc1c(CN2CCCCC2)ccc2cccnc12 | inactive |  |
| COc1ccc(S(=O)(=O)N2CCOC23CCN(S(=O)(=O)c2ccc(C)cc2)CC3)cc1 | inactive |  |
| O=C(Nc1ccc(F)cc1)c1ccccc1NC(=O)C1CC=CCC1C(=O)O (stereo unspecified) | inactive |  |
| Cc1cccc(C(=O)Nc2cccc(NC(=O)c3ccccc3)c2)c1 | inactive |  |
| Cc1nc2ccc(NS(=O)(=O)c3c(F)cc(F)cc3Br)cc2s1 | inactive |  |
| COCC(=O)Nc1ccc2c(c1)OC[C@H](C)N(CC1CC1)C[C@@H](C)[C@H](OC)CN(C)C2=O |  | activity change, negative = inhibition (at 23.5 µM (top of the series)): inactive |
| CCCC(=O)Nc1ccc2c(c1)OC[C@@H](C)NC[C@@H](C)[C@@H](OC)CN(C)C2=O | inactive |  |
| Fc1cccc(Nc2nc(-c3ccncc3)nc3ccccc23)c1 | inactive |  |
| Cc1ccc([N+](=O)[O-])cc1S(=O)(=O)Nc1ccc(C(=O)N2CCN(C(=O)c3ccco3)CC2)cc1 | inactive |  |
| CCN(CC)C1CCN(Cc2c(C(=O)N3CCCCCCC3)nc3ccc(Cl)cn23)C1 (stereo unspecified) | inactive |  |
| Cc1noc(C)c1COc1ccccc1C(=O)N(C)CC(=O)Nc1ccc(F)c(F)c1F | inactive |  |
| CCOC(=O)[C@H]1[C@H]2COc3ccc(Cl)cc3[C@@H]2N2C(=O)CN(Cc3ccc(C)cc3)C(=O)[C@@]12C | inactive |  |
| CCCC(=O)Nc1ccc2c(c1)OC[C@@H](C)NC[C@H](C)[C@@H](OC)CN(C)C2=O | inactive |  |
| CCOC(=O)c1c(NC(=O)C2CC(Cl)=CCC2C(=O)O)sc2c1CC(C)(C)OC2 (stereo unspecified) | inactive |  |

| SMILES | activity change, negative = inhibition (at 26 µM (top of the series)) | other results |
| --- | --- | --- |
| O=C(COC(=O)c1ccc([N+](=O)[O-])o1)NC1CCCCC1 | inactive |  |
| CCC(=O)N1C[C@H](C)[C@H](OC)CN(C)C(=O)c2ccc(NC(=O)c3ccccc3)cc2OC[C@H]1C | inactive |  |
| O=C(NNC(=O)c1ccccc1O)c1ccccc1O | inactive |  |
| O=C(O)c1cccc(S(=O)(=O)NNc2ccccc2C(F)(F)F)c1 | inactive |  |
| C[c-]1[c-](C)[c-](C)[c-](C)[c-]1C.[Fe].c1cc2nccc(N3CCCC3)[c-]2c1 (stereo unspecified) |  | AC50: 5.86 µM |
| O=C(Cn1cncn1)NCCCc1ccccc1 | inactive |  |
| O=C1C2C3C=CC(CC3)C2C(=O)N1c1nccs1 (stereo unspecified) | inactive |  |
| O=C([C@H]1[C@H](CO)[C@H]2Cn3c(cccc3=O)[C@H]2N1Cc1ccccn1)N1CCC(Cc2ccccc2)CC1 | inactive |  |
| Nc1ccccc1Sc1ccc(C(=O)c2ccccc2C(=O)O)cc1[N+](=O)[O-] | inactive |  |
| Cc1cccc(C)c1OCc1nc2ccccc2[nH]1 | inactive |  |
| CN1CC2([N+](=O)[O-])CC=C(OCCO)C([N+](=O)[O-])(C1)C2 (stereo unspecified) | inactive |  |
| N[C@@H](Cc1cc(I)c(O)c(I)c1)C(=O)O | inactive |  |
| O=C(N/N=C\c1ccc([N+](=O)[O-])o1)c1cncc(Br)c1 | inactive |  |
| O=C(NN=C1CCCC1)c1n[nH]c2c1CCC2 | inactive |  |
| CCCN1C[C@H](C)[C@H](OC)CN(C)C(=O)c2ccc(NC(=O)CC)cc2OC[C@H]1C | inactive |  |
| O=C(NC1CCCCC1)N[C@H]1C=C[C@@H](CC(=O)N2CCOCC2)O[C@@H]1CO | inactive |  |
| COc1ccccc1C(=O)Nc1ccc2c(c1)OC[C@@H](C)N(CC1CC1)C[C@@H](C)[C@H](OC)CN(C)C2=O |  | activity change, negative = inhibition (at 23.5 µM (top of the series)): inactive |
| CCOC(=O)c1c(C)c(C(=O)NCc2ccc(OC)cc2)c(C)n1C | inactive |  |
| COc1ccc(OCCN2CCC(C(=O)NC(c3ccccn3)c3ccccc3OC)CC2)cc1 (stereo unspecified) | inactive |  |
| N#CC1=C(N)Oc2cc(N)ccc2C1c1ccccc1 (stereo unspecified) | inactive |  |
| CCCC(=O)Nc1ccc2c(c1)OC[C@H](C)N(Cc1ccc(F)cc1)C[C@@H](C)[C@H](OC)CN(C)C2=O | inactive |  |
| Cc1nc2ccccc2n1CCOc1ccccc1 | inactive |  |

| SMILES | activity change, negative = inhibition (at 26 µM (top of the series)) | other results |
| --- | --- | --- |
| CN1C(=O)CCS(=O)(=O)C1c1ccc(Cl)c(Cl)c1 (stereo unspecified) | inactive |  |
| Cc1nc2ccccc2c(=O)n1-c1ccc(NS(=O)(=O)c2ccc(F)cc2F)cc1 | inactive |  |
| O=C(COC(=O)Cc1ccc(S(=O)(=O)N2CCOCC2)s1)Nc1ccc(F)cc1F | inactive |  |
| CCN(Cc1ccccc1OC)CC1CCCN(CCc2cccc(OC)c2)C1 (stereo unspecified) | inactive |  |
| O=C(Nc1cc(Cl)cc(Cl)c1)c1coc(=O)c(Br)c1 | inactive |  |
| Cc1cc(-n2nnc3ccccc32)nc2ccccc12 | inactive |  |
| COc1cccc(N2C(=O)NC(=O)/C(=C/c3ccc([N+](=O)[O-])s3)C2=O)c1 | inactive |  |
| O=C(NCC(c1ccco1)N1CCc2ccccc21)c1ccc([N+](=O)[O-])cc1 (stereo unspecified) | inactive |  |
| c1ccc(CCNc2ccc3ncc(-c4cccc5ccccc45)n3n2)nc1 | inactive |  |
| Cn1c(=O)[nH]c(=O)c2c1nc(CN1CCOCC1)n2Cc1ccccc1 | inactive |  |
| COc1ccc2c(C#N)c3ccccn3c2c1 | inactive |  |
| CN(CC(=O)Nc1ccccc1Cl)C(=O)COC(=O)c1cccs1 | inactive |  |
| CC(C)(C)c1ccc(C(=O)Nc2ccc(S(=O)(=O)Nc3cnc4ccccc4n3)cc2)cc1 | inactive |  |
| CO[C@H]1CN(C)C(=O)c2ccc(NC(=O)C3CC3)cc2OC[C@H](C)N(Cc2cccc(F)c2)C[C@H]1C | inactive |  |
| O=C(O)c1ccc2nnn(O)c2c1 | inactive |  |
| CO[C@@H]1CN(C)C(=O)c2ccc(NC(=O)C3CC3)cc2OC[C@H](C)N(CC2CCOCC2)C[C@H]1C | inactive |  |
| CCC(=O)Nc1ccc2c(c1)OC[C@H](C)N(C(=O)C1CC1)C[C@@H](C)[C@@H](OC)CN(C)C2=O | inactive |  |
| CC(C)OCCCNC(=O)c1c(N)n(CC2CCCO2)c2nc3ccccc3nc12 (stereo unspecified) | inactive |  |
| COc1ccc(-n2c(NNC(C)=O)nc3sc4c(c3c2=O)CCCC4)cc1 | inactive |  |
| CO[C@@H]1CN(C)C(=O)c2ccc(NC(=O)c3ccccc3)cc2OC[C@H](C)N(C(=O)C2CC2)C[C@H]1C | inactive |  |
